Assay results reported in patent US8076329B2, “Histamine H3-receptor ligands and their therapeutic applications” (Bioprojet, priority 2005, dated 2011).
Where “and” joins values, the source holds several entries; their conditions need not be identical. Equal values may be shown once. Where a name gives a salt, the structure may show the parent alone.

Columns and labels:
CYP2D6 = CYP2D6 (Homo sapiens, UniProt P10635); experiment: Cytochrome inhibition, fluorometric microtiter plate assay; format: in vitro ADME; settings: CYP2D6 cytochrome inhibition (IC50, concentrations in μM for 50% inhibition), human recombinant CYP2D6, substrate AMMC, compounds of the invention
Protocol: (§1) The ability of drug in human to inhibit the catalytic activity of cytochrome P-450 isoforms was assayed using microtiter plate-based, fluorometric assays for the activities of the five human major CYP forms. Inhibition potential was determined in vitro after incubation of fluorescent model substrates over various incubation time with human recombinant cytochrome isoforms in the absence or in presence of increasing concentrations of test molecules (from 1 nM to 100 μM), in comparison with specific CYP isoform inhibitors.
(§2) Incubation of drug was carried out at 37° C.±0.5° C. under agitation in the presence of human recombinant cytochrome P-450 isoforms and a NADPH generating system. The incubation conditions for each cytochrome isoform were as follows: […]

CYP3A4 = CYP3A4 (Homo sapiens, UniProt P08684); experiment: as above; format: in vitro ADME; settings: CYP3A4 cytochrome inhibition (IC50, concentrations in μM for 50% inhibition), human recombinant CYP3A4, substrate BFC, compounds of the invention
Protocol: as §1, §2

[1] = molecular target: human histamine H3 receptors (Homo sapiens, UniProt Q9Y5N1); experiment: H3 binding ([125I]iodoproxyfan displacement on membranes); settings: compounds of the invention; membranes expressing human H3 receptors
Protocol: Membranes expressing human histamine H3 receptors were incubated 1 hour at room temperature in binding buffer containing 50 mM Na2HPO4/KH2PO4 pH 7.5 in a final volume of 200 μl. […] The reaction was stopped by rapid filtration through GF/B filters (pre-soaked for 2 hours with 0.3% polyethyleneimine) followed by 3 ice cold binding buffer washes. The filter-bound radioactivity was measured in a liquid scintillation counter with 50 μl of scintillation fluid.

Sequence of CYP3A4 (P08684 whole entry): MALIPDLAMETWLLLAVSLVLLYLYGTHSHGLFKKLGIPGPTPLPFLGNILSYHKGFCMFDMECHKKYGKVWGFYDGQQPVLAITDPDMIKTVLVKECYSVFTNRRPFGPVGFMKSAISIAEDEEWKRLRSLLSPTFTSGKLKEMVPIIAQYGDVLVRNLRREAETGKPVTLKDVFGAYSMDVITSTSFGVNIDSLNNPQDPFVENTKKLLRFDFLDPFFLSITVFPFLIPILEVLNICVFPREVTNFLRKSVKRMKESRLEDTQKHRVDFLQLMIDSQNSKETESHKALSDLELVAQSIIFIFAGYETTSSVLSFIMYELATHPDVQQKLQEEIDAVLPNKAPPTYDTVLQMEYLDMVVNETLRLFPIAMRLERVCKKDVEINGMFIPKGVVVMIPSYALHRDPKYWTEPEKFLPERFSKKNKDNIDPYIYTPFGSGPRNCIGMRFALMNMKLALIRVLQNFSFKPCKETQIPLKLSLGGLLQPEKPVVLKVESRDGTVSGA
Sequence of human histamine H3 receptors (Q9Y5N1 whole entry): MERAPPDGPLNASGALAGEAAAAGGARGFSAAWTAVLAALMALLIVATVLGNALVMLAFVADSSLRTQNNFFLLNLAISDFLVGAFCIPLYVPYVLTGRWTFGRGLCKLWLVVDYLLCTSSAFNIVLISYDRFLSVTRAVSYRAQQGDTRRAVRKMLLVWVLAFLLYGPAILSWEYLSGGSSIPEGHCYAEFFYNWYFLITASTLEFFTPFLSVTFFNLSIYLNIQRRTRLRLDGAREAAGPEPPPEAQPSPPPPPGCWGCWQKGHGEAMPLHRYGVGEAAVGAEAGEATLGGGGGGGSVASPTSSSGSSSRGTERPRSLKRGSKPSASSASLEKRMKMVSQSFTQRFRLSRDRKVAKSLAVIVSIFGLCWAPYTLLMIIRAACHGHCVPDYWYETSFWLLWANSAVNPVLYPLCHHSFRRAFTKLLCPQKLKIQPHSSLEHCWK
Sequence of CYP2D6 (P10635 whole entry, canonical isoform): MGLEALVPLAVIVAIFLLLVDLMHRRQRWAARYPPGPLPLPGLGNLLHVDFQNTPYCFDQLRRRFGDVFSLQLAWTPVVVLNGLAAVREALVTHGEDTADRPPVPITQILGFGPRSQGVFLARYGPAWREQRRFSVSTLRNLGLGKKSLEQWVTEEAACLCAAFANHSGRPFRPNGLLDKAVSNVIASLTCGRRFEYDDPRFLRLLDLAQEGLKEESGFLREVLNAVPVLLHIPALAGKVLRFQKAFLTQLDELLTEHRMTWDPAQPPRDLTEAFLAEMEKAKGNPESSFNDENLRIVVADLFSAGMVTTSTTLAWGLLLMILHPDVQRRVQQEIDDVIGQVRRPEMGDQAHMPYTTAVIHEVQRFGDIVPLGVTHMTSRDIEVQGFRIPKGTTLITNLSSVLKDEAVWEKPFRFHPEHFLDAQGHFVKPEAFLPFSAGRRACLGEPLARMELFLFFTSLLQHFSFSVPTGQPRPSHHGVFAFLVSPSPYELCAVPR

Row | Compound | melting point [°C] | IC50 (CYP2D6) | IC50 (CYP3A4) | Ki [1] [pM] | IC50 (CYP2D6; human, recombinant human CYP2D6, probe AMMC) [µM] | IC50 (CYP3A4; human, recombinant human CYP3A4, probe BFC) [µM]
1 | CC1CCCN1CCCOc1ccc([C@H]2CC[C@H](O)CC2)cc1 (stereo partly drawn) (as salt: oxalate) [Example 66, 1-{3-[trans-4-(4-hydroxycyclohexyl)phenoxy]propyl}-2-methylpyrrolidine] | 80 |  |  |  |  | 
2 | C[C@@H]1C[C@@H](C)CN(CCCOc2ccc(C3=NCCC3)cc2)C1 (relative stereo) [Example 17, trans-1-{3-[4-(4,5-dihydro-3H-pyrrol-2-yl)phenoxy]propyl}-3,5-dimethylpiperidine] |  |  |  | 430 |  | 
3 | O=C(c1ccccc1)c1ccc(OCCCN2CCCCC2)cc1 [Example 3] |  | 32 µM | 18 µM | 1100 |  | 
4 | OC1(c2ccc(OCCCN3CCCCC3)cc2)CCCC1 [Example 8, 1-{3-[4-(1-hydroxycyclopentyl)phenoxy]propyl}piperidine] |  | > 100 µM | 20 µM | 820 |  | 
5 | O=C(O)C(=O)O.O=C(O)C(=O)O.c1cc(C2=NCCCC2)ccc1OCCCN1CCCCC1 [Example 15, 6-[4-(3-piperidinopropoxy)phenyl]-2,3,4,5-tetrahydropyridine] | 104 | > 10 µM | 46 µM |  |  | 
6 | c1cc(-c2ccc(OCCCN3CCCCC3)cc2)cs1 [Example 29, 1-{3-[4-(3-thienyl)phenoxy]propyl}piperidine] |  | 24 µM | > 100 µM | 880 |  | 
7 | c1cncc(-c2ccc(OCCCN3CCCCC3)cc2)c1 [Example 32, 1-{3-[4-(3-pyridyl)phenoxy]propyl}piperidine] |  | 7 µM | 9 µM | 220 |  | 
8 | c1cc(-c2ccc(OCCCN3CCCCC3)cc2)ccc1OCCCN1CCCCC1 [Example 35, di-1,1′-{(biphenyl-4,4′-diyl)bis[oxy(propan-1,3-diyl)]}piperidine] |  | 71 µM | 5 µM | 100 |  | 
9 | c1cc(-c2ccc(OCCCN3CCCC3)cc2)ccc1OCCCN1CCCCC1 [Example 37, 1-(3-{[4′-(3-piperidinopropoxy)biphenyl-4-yl]oxy}propyl)pyrrolidine] | 105 to 108 | > 10 µM | 15 µM |  |  | 
10 | c1cc(-c2ccc(OCCCN3CCCCC3)cc2)ccc1CN1CCCCC1 [Example 42, 1-(3-{[4′-(piperidinomethyl)biphenyl-4-yl]oxy}propyl)piperidine] | 90 | > 10 µM | > 10 µM |  |  | 
11 | Cc1cc(-c2ccc(OCCCN3CCC[C@H](C)C3)cc2)cc[n+]1[O-] [Example 54, 2-methyl-4-(4-{3-[(3S)-3-methylpiperidin-1-yl]propoxy}phenyl)pyridine 1-oxide] |  | > 10 µM | > 1 µM | 400 |  | 
12 | C[C@H]1CCCN(CCCOc2ccc(-c3cc[n+](C)cc3)cc2)C1 [Example 57, 1-methyl-4-(4-{3-[(3S)-3-methylpiperidin-1-yl]propoxy}phenyl)pyridinium] |  | > 10 µM | > 10 µM |  |  | 
13 | OC1CCC(c2ccc(OCCCN3CCCCC3)cc2)CC1 (centres unmarked) [Example 60, 1-{3-[4-(4-hydroxycyclohexyl)phenoxy]propyl}piperidine] |  | > 10 µM | > 10 µM |  |  | 
14 | C[C@H]1CCCN(CCCOc2ccc([C@H]3CC[C@H](O)CC3)cc2)C1 [Example 61, (3S)-1-{3-[trans-4-(4-hydroxycyclohexyl)phenoxy]propyl}-3-methylpiperidine] |  | > 10 µM | > 10 µM |  |  | 
15 | O[C@H]1CC[C@H](c2ccc(OCCCN3CCCC3)cc2)CC1 [Example 63, 1-{3-[trans-4-(4-hydroxycyclohexyl)phenoxy]propyl}pyrrolidine] |  | > 10 µM | > 10 µM |  |  | 
16 | CN1CCC(OCc2ccc(OCCCN3CCCCC3)cc2)CC1 [Example 67, 1-methyl-4-[4-(3-piperidinopropoxy)benzyloxy]piperidine] |  | > 10 µM | > 10 µM |  |  | 
17 | CN1CCC(COCc2ccc(OCCCN3CCCCC3)cc2)CC1 [Example 68, 1-methyl-4-[4-(3-piperidinopropoxy)benzyloxymethyl]piperidine] |  | > 10 µM | > 10 µM |  |  | 
18 | CN1CCC(CCOCc2ccc(OCCCN3CCCCC3)cc2)CC1 [Example 69, 1-methyl-4-{2-[4-(3-piperidinopropoxy)benzyloxy]ethyl}piperidine] |  | > 10 µM | > 10 µM | 1190 |  | 
19 | CCN1CCCC(OCc2ccc(OCCCN3CCCCC3)cc2)C1 (centres unmarked) [Example 70, 1-ethyl-3-[4-(3-piperidinopropoxy)benzyloxy]piperidine] |  |  |  | 350 |  | 

Further lines, results first:

Row | melting point [°C] | IC50 (CYP2D6) | IC50 (CYP3A4) | Ki [1] [pM] | IC50 (CYP2D6; human, recombinant human CYP2D6, probe AMMC) [µM] | IC50 (CYP3A4; human, recombinant human CYP3A4, probe BFC) [µM] | Compound
20 | 240 |  |  |  |  |  | C[C@H]1C[C@H](C)CN(CCCOc2ccc([C@H]3CC[C@H](N(C)C)CC3)cc2)C1 (as salt: hydrochloride) [Example 12, (3S,5S)-1-{3-[4-(trans-4-dimethylaminocyclohex-1-yl)phenoxy]propyl}-3,5-dimethylpiperidine]
21 | 130 |  |  |  |  |  | c1cc(-c2ccc(OCCCN3CCCCC3)cc2)ccc1CCCN1CCCCC1 (as salt: oxalate) [Example 48]
22 |  | > 10 µM | 32 µM | 2900 |  |  | C[C@H]1C[C@H](C)CN(CCCOc2ccc(C(=O)N(C)C)cc2)C1 (relative stereo) [Example 1, trans-1-{3-[4-(N,N-dimethylcarbamoyl)phenoxy]propyl}-3,5-dimethylpiperidine]
23 |  | > 10 µM and 14 µM | > 1 µM and 13 µM | 130 |  |  | C[C@H]1CCCN(CCCOc2ccc(C3CCC(N4CCOCC4)CC3)cc2)C1 (single isomer, unassigned) [Example 41, dihydrochloride]
24 |  | 39 µM | 4 µM | 740 |  |  | CCCC(O)(CCC)c1ccc(OCCCN2CCCCC2)cc1 [Example 7, 1-{3-[4-(1-hydroxy-1-propylbutyl)phenoxy]propyl}piperidine]
25 | 195 | > 10 µM | > 10 µM | 3500 |  |  | Cc1ccc(-c2ccc(OCCCN3CCCCC3)cc2)cc1.O=C(O)C(=O)O [Example 24, 1-{3-[(4′-methylbiphenyl-4-yl)oxy]propyl}piperidine]
26 |  |  |  | 530 | 10 | 10 | Cc1ccccc1-c1ccc(OCCCN2CCCCC2)cc1 [Example 28, 1-{3-[(2′-methylbiphenyl-4-yl)oxy]propyl}piperidine]
27 | 167 | > 1 µM | > 10 µM |  |  |  | C(#Cc1ccc(OCCCN2CCCCC2)cc1)CCN1CCCCC1.O=C(O)C(=O)O.O=C(O)C(=O)O [Example 43, 1-{3-[4-(4-Piperidinobut-1-yn-1-yl)phenoxy]propyl}piperidine]
28 | 110 | > 10 µM | > 10 µM |  |  |  | C[C@H]1CCCN(CCCOc2ccc(-c3ccnc(O)c3)cc2)C1.O=C(O)C(=O)O [Example 55, 2-hydroxy-4-(4-{3-[(3S)-3-methylpiperidin-1-yl]propoxy}phenyl)pyridine]
29 | 143 | > 10 µM | > 1 µM |  |  |  | C[C@H]1CCCN(CCCOc2ccc(-c3ccnc(Cl)c3)cc2)C1.O=C(O)C(=O)O.O=C(O)C(=O)O [Example 56, 2-chloro-4-(4-{3-[(3S)-3-methylpiperidin-1-yl]propoxy}phenyl)pyridine]
30 |  | > 10 µM | > 10 µM | 61 |  |  | C[C@H]1CCCN(CCCOc2ccc(-c3ccnc(OCCCN4CCCCC4)c3)cc2)C1 [Example 58, 2-(3-piperidinopropoxy)-4-(4-{3-[(3S)-3-methylpiperidin-1-yl]propoxy}phenyl)-pyridine]
31 | 97 | > 10 µM | > 10 µM |  |  |  | Cc1cc(-c2ccc(OCCCN3CCC[C@H](C)C3)cc2)ccn1.O=C(O)C(=O)O.O=C(O)C(=O)O [Example 59, 2-methyl-4-(4-{3-[(3S)-3-methylpiperidin-1-yl]propoxy}phenyl)pyridine]
32 |  |  |  | 554 |  |  | C[C@H]1CCCN(CCCOc2ccc([C@H]3CC[C@H](O)CC3)cc2)C1 [Example 62, (3S)-1-{3-[4-(4-hydroxycyclohexyl)phenoxy]propyl}-3-methylpiperidine]
33 |  | > 10 µM | > 10 µM |  |  |  | C[C@H]1CCCN(CCCOc2ccc(C3CCC(C)(O)CC3)cc2)C1 (stereo partly drawn) [Example 64, (3S)-1-{3-[4-(4-hydroxy-4-methylcyclohexyl)phenoxy]propyl}-3-methylpiperidine]
34 |  | > 10 µM | > 10 µM |  |  |  | O[C@H]1CC[C@H](c2ccc(OCCCN3CCCCC3)cc2)CC1 [Example 65, 1-{3-[trans-4-(4-hydroxycyclohexyl)phenoxy]propyl}piperidine]
35 |  | > 10 µM | > 10 µM | 830 |  |  | CC1CCCN1CCCOc1ccc([C@H]2CC[C@H](O)CC2)cc1 (stereo partly drawn) [Example 66, 1-{3-[trans-4-(4-hydroxycyclohexyl)phenoxy]propyl}-2-methylpyrrolidine]
